Reference: PubChem BioAssay AID248 (DTP/NCI, 2004)
“And” between values parts separate entries of the source, which are not always exact repeats. Equal entries are not always repeated. Toxic doses and inconclusive results are not listed. Rule as the data show it: active = T/C of 150% or more; inactive = T/C below 125%.

Tested on: L1210 leukemia ip in BDF1 mice, survival T/C
Test: NCI In Vivo Anticancer Drug Screen. Data for tumor model L1210 Leukemia (intraperitoneal) in B6D2F1 (BDF1) mice
Details: endpoint: mean survival time, higher = longer survival
Procedure, shortened: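 Transplanted-tumor mice were given test agent; controls received vehicle only. Survival readings from the two groups were divided (treated over control).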

[1] = dose: 100.0 mg/kg/injection, schedule: Q01DX009 (ip), vehicle: Klucel (hydroxypropylcellulose) (HPC)
[2] = dose: 200.0 mg/kg/injection, schedule: Q01DX009 (ip), vehicle: Klucel (hydroxypropylcellulose) (HPC)
[3] = dose: 400.0 mg/kg/injection, schedule: Q01DX009 (ip), vehicle: Klucel (hydroxypropylcellulose) (HPC)
[4] = dose: 25.0 mg/kg/injection, schedule: Q04DX002 (ip), vehicle: saline with Tween-80
[5] = dose: 100.0 mg/kg/injection, schedule: Q04DX002 (ip), vehicle: saline with Tween-80
[6] = dose: 100.0 mg/kg/injection, schedule: Q04DX003 (ip), vehicle: saline with Tween-80
[7] = dose: 200.0 mg/kg/injection, schedule: Q04DX003 (ip), vehicle: saline with Tween-80

Measured: T/C

Oc1ccc(O)c(-c2cc3c(O)ccc(O)c3[nH]2)c1
inactive: dose: 25.0 mg/kg/injection, schedule: Q04DX002 (ip), vehicle: Klucel (hydroxypropylcellulose) (HPC) 104 % of control | dose: 50.0 mg/kg/injection, schedule: Q04DX002 (ip), vehicle: Klucel (hydroxypropylcellulose) (HPC) 93 % of control | dose: 100.0 mg/kg/injection, schedule: Q04DX002 (ip), vehicle: Klucel (hydroxypropylcellulose) (HPC) 104 % of control | dose: 200.0 mg/kg/injection, schedule: Q04DX002 (ip), vehicle: Klucel (hydroxypropylcellulose) (HPC) 96 % of control

O=C(COc1ccccc1C(=O)O)NCc1ccc(Cl)cc1
inactive: dose: 100.0 mg/kg/injection, schedule: Q04DX003 (ip), vehicle: gum acacia 97 % of control | dose: 200.0 mg/kg/injection, schedule: Q04DX003 (ip), vehicle: gum acacia 95 % of control | dose: 400.0 mg/kg/injection, schedule: Q04DX003 (ip), vehicle: gum acacia 96 % of control

C[N+](C)(C)C1(Cc2ccc(Cl)cc2)c2ccccc2-c2ccccc21
inactive: dose: 12.5 mg/kg/injection, schedule: Q01DX009 (ip), vehicle: Klucel (hydroxypropylcellulose) (HPC) 97 % of control | dose: 12.5 mg/kg/injection, schedule: Q04DX003 (ip), vehicle: Klucel (hydroxypropylcellulose) (HPC) 95 % of control | dose: 25.0 mg/kg/injection, schedule: Q01DX009 (ip), vehicle: Klucel (hydroxypropylcellulose) (HPC) 92 % of control | dose: 25.0 mg/kg/injection, schedule: Q04DX003 (ip), vehicle: Klucel (hydroxypropylcellulose) (HPC) 95 % of control | dose: 50.0 mg/kg/injection, schedule: Q01DX009 (ip), vehicle: Klucel (hydroxypropylcellulose) (HPC) 98 % of control | dose: 50.0 mg/kg/injection, schedule: Q04DX003 (ip), vehicle: Klucel (hydroxypropylcellulose) (HPC) 92 % of control

Cc1ccc(NC(=O)N(C)N)cc1
inactive: dose: 75.0 mg/kg/injection, schedule: Q01DX001 (ip), vehicle: carboxymethylcellulose (CMC) 102 % of control | dose: 150.0 mg/kg/injection, schedule: Q01DX001 (ip), vehicle: carboxymethylcellulose (CMC) 104 % of control

CCOc1ccccc1/C=N/N1CCN(/N=C/c2ccccc2OCC)CC1
inactive: dose: 100.0 mg/kg/injection, schedule: Q01DX001 (ip), vehicle: saline 100 % of control | dose: 200.0 mg/kg/injection, schedule: Q01DX001 (ip), vehicle: saline 90 % of control | dose: 400.0 mg/kg/injection, schedule: Q01DX001 (ip), vehicle: saline 90 % of control

O=C(Nc1ccccc1F)Oc1ccc(OCc2ccccc2)cc1
inactive: [1] 101 % of control | [2] 101 % of control | [3] 101 % of control

COc1cc(C)c(C(=O)c2ccccc2NS(=O)(=O)c2ccc(C)cc2)cc1OC
inactive: dose: 50.0 mg/kg/injection, schedule: Q01DX001 (ip), vehicle: other 98 % of control | dose: 100.0 mg/kg/injection, schedule: Q01DX001 (ip), vehicle: other 95 % of control | dose: 200.0 mg/kg/injection, schedule: Q01DX001 (ip), vehicle: other 92 % of control | dose: 400.0 mg/kg/injection, schedule: Q01DX001 (ip), vehicle: other 104 % of control

O=[N+]([O-])/C=C/C=C/c1ccco1
inactive: dose: 6.25 mg/kg/injection, schedule: Q04DX002 (ip), vehicle: saline with Tween-80 97 % of control | dose: 12.5 mg/kg/injection, schedule: Q04DX002 (ip), vehicle: saline with Tween-80 101 % of control | [4] 97 % of control and 90 % of control

Cc1ccc(NC(=O)NCCBr)cc1C
inactive: dose: 100.0 mg/kg/injection, schedule: Q04DX003 (ip), vehicle: Klucel (hydroxypropylcellulose) (HPC) 96 % of control | dose: 200.0 mg/kg/injection, schedule: Q04DX003 (ip), vehicle: Klucel (hydroxypropylcellulose) (HPC) 93 % of control | dose: 400.0 mg/kg/injection, schedule: Q04DX003 (ip), vehicle: Klucel (hydroxypropylcellulose) (HPC) 95 % of control

CN1CCN(P(=O)(c2ccccc2)N2CCN(C)CC2)CC1
inactive: [5] 98 % of control | dose: 200.0 mg/kg/injection, schedule: Q04DX002 (ip), vehicle: saline with Tween-80 98 % of control | dose: 400.0 mg/kg/injection, schedule: Q04DX002 (ip), vehicle: saline with Tween-80 98 % of control

c1ccc2c(C3OCC4(CC4)CO3)cccc2c1
inactive: dose: 25.0 mg/kg/injection, schedule: Q01DX001 (ip), vehicle: Klucel (hydroxypropylcellulose) (HPC) 100 % of control | dose: 50.0 mg/kg/injection, schedule: Q01DX001 (ip), vehicle: Klucel (hydroxypropylcellulose) (HPC) 96 % of control | dose: 100.0 mg/kg/injection, schedule: Q01DX001 (ip), vehicle: Klucel (hydroxypropylcellulose) (HPC) 105 % of control

CC(Br)(C(CC(=O)C1CC1)c1ccccc1)[N+](=O)[O-] (stereo not given)
inactive: dose: 25.0 mg/kg/injection, schedule: Q01DX009 (ip), vehicle: other 93 % of control | dose: 25.0 mg/kg/injection, schedule: Q04DX003 (ip), vehicle: other 100 % of control | dose: 50.0 mg/kg/injection, schedule: Q01DX001 (ip), vehicle: carboxymethylcellulose (CMC) 108 % of control | dose: 50.0 mg/kg/injection, schedule: Q01DX009 (ip), vehicle: other 89 % of control and 90 % of control | dose: 50.0 mg/kg/injection, schedule: Q04DX003 (ip), vehicle: other 96 % of control | dose: 100.0 mg/kg/injection, schedule: Q01DX001 (ip), vehicle: carboxymethylcellulose (CMC) 90 % of control | dose: 100.0 mg/kg/injection, schedule: Q01DX009 (ip), vehicle: other 91 % of control | dose: 100.0 mg/kg/injection, schedule: Q04DX003 (ip), vehicle: other 93 % of control and 103 % of control | dose: 200.0 mg/kg/injection, schedule: Q01DX001 (ip), vehicle: carboxymethylcellulose (CMC) 92 % of control | dose: 400.0 mg/kg/injection, schedule: Q01DX001 (ip), vehicle: carboxymethylcellulose (CMC) 95 % of control

CCOC(=O)c1c(NC(=O)CCl)ssc1=S
inactive: dose: 50.0 mg/kg/injection, schedule: Q01DX009 (ip), vehicle: saline with Tween-80 103 % of control | [6] 92 % of control | [7] 91 % of control

CC12CC=C3c4ccc(S)cc4CCC3C1CCC2=O (stereo not given)
inactive: dose: 100.0 mg/kg/injection, schedule: Q01DX001 (ip), vehicle: saline with Tween-80 96 % of control | dose: 200.0 mg/kg/injection, schedule: Q01DX001 (ip), vehicle: saline with Tween-80 89 % of control | dose: 400.0 mg/kg/injection, schedule: Q01DX001 (ip), vehicle: saline with Tween-80 89 % of control

CC(=O)OCCN1c2ccccc2Sc2cnccc21
inactive: dose: 100.0 mg/kg/injection, schedule: Q01DX009 (ip), vehicle: saline with Tween-80 104 % of control | [6] 104 % of control | dose: 200.0 mg/kg/injection, schedule: Q01DX009 (ip), vehicle: saline with Tween-80 97 % of control | [7] 110 % of control | dose: 400.0 mg/kg/injection, schedule: Q01DX009 (ip), vehicle: saline with Tween-80 104 % of control | dose: 400.0 mg/kg/injection, schedule: Q04DX003 (ip), vehicle: saline with Tween-80 104 % of control

Cc1nc2ccccc2cc1CCl
inactive: dose: 75.0 mg/kg/injection, schedule: Q01DX001 (ip), vehicle: acetone 88 % of control | dose: 150.0 mg/kg/injection, schedule: Q01DX001 (ip), vehicle: acetone 88 % of control

CC(C)=CCOC1=CC(=O)C(=O)c2ccccc21
inactive: [4] 87 % of control | dose: 25.0 mg/kg/injection, schedule: Q04DX003 (ip), vehicle: saline with Tween-80 94 % of control | dose: 50.0 mg/kg/injection, schedule: Q04DX002 (ip), vehicle: saline with Tween-80 95 % of control | dose: 50.0 mg/kg/injection, schedule: Q04DX003 (ip), vehicle: saline with Tween-80 93 % of control | [5] 95 % of control | [6] 99 % of control

CCc1ccc(NS(=O)(=O)c2ccccc2[N+](=O)[O-])cc1
inactive: [1] 105 % of control | [2] 105 % of control | [3] 113 % of control
